The source of these data is US20230365530A1, “QUINAZOLINE-2,4-DIAMINE DERIVATIVE AND PHARMACEUTICAL COMPOSITION FOR PREVENTING OR TREATING CANCER COMPRISING SAME AS ACTIVE INGREDIENT” (THE ASEAN FOUNDATION, priority 2020, published 2023).

EHMT2 (Euchromatic histone-lysine N-methyltransferase 2), sequence (Q96KQ7 whole entry): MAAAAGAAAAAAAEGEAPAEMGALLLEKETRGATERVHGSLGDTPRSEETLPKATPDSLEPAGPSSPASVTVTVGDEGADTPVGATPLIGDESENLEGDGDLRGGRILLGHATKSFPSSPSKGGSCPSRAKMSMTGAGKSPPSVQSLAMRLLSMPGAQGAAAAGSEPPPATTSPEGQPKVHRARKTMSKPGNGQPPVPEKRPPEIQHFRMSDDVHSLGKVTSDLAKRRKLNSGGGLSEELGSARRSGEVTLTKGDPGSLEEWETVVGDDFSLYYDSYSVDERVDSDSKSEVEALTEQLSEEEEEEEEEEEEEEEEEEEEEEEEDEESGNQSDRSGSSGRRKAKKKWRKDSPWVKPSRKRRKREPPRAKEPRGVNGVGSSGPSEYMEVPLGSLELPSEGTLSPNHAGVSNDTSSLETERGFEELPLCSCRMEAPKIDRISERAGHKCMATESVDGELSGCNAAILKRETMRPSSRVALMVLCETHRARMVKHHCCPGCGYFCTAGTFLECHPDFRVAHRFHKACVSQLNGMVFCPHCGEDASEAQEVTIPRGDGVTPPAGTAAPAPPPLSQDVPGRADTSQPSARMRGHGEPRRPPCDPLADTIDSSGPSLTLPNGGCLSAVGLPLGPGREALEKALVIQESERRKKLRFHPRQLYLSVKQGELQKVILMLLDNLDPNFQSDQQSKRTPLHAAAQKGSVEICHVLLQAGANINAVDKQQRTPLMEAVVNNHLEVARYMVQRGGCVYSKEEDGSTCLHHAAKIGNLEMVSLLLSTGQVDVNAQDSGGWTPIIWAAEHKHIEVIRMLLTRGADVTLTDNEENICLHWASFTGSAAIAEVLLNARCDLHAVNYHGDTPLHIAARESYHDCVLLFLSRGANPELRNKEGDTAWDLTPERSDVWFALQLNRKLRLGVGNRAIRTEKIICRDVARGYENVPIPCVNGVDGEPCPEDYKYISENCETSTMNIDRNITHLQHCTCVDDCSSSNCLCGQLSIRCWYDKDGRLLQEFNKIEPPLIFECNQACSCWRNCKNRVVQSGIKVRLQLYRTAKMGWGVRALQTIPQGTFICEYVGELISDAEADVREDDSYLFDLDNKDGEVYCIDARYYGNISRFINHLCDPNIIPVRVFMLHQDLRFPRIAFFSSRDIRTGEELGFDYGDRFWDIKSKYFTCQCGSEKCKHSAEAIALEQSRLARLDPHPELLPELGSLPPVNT

In this assay the target is EHMT2 (Euchromatic histone-lysine N-methyltransferase 2) (Homo sapiens (Human), UniProt Q96KQ7). Nature of the assay: EHMT2 enzyme inhibition, LANCE TR-FRET. Type of assay: biochemical. The following applies: histone H3 peptide, 1 hour at room temperature. On the procedure:
In order to analyze the enzyme inhibitory efficacy of the compounds of Examples 1 to 89, EHMT2 (Euchromatic histone-lysine N-methyltransferase 2) enzyme activity was measured using the LANCE TR-FRET™ analysis method of Perkin Elmer. When the EHMT2 enzyme is activated, the 9th lysine residue of the biotinylated-histone peptide is methylated and the EU-conjugated antibody is combined to the methylated histone peptide. Then, when the complex is irradiated with light of excitation wavelength, the complex emits light having a wavelength of 665 nm through FRET phenomenon. Accordingly, fluorescence was measured, and IC50 values were calculated through a software to evaluate the EHMT2 enzyme activity inhibitory effect of the compounds of Examples 1 to 89.
Specific experimental methods are as follows. First, the compounds of Examples 1 to 89 of 1 nM to 100 μM (4× conc.) were put into a 384 well plate (25 μL/well), and 2 μM EEMT2/G9a enzyme (4× conc.) was put into the 384 well plate (25 μL/well). The plate was then centrifuged at 1,500 rpm for 5 seconds after sealing the plate with plate sealing foil. After incubating the EHMT2/G9a enzyme, SAM, and the compounds of Examples above at room temperature for 10 minutes, 2 μM histone H3 peptide (4× conc.) was added to the 384-well plate (25 μL/well). After sealing the plate with plate sealing foil and centrifuging at 1,500 rpm for 5 seconds, an enzymatic reaction was performed at room temperature for 1 hour. Upon completion of the enzyme reaction, 5 μL each of 200 nM Ulight™-Streptavidin (4× conc.) and 8 nM Eu-antibody (4× conc.) was added to each well of the plate. The plate was sealed with plate sealing foil, centrifuged at 1,500 rpm for 5 seconds and reacted at room temperature for 1 hour. The signal values were measured with Envision (Ex 320 nm, Em 665 nm), and all background values obtained by reacting without enzyme were deleted from the measured raw data values. Then, the EHMT2 enzyme activity inhibitory effect of the compounds of Examples 1 to 89 was converted into % values, and compared with the EHMT2 activity when treated with 4% DMSO vehicle (=0 nM compound) as 100%.
In general terms: Time-resolved FRET reads energy transfer from a long-lived donor to a nearby acceptor.
`COc1cc2c(NC3CCN(C(C)C)CC3)nc(N3C[C@@H]4C[C@@H]4[C@@H]3CO)nc2cc1C#CCCN1CCCC1` [Example 46, ((1S,2R,5R)-3-(4-((1-isopropylpiperidine-4-yl)amino)-6-methoxy-7-(4-(pyrrolidine-1-yl)-1-butyne-1-yl)quinazoline-2-yl)-3-azabicyclo[3.1.0]hexane-2-yl)methanol] registered an IC50 below 100 nM.

Turning to `COc1cc2c(NC3CCN(CCO)CC3)nc(N3CCCC3)nc2cc1C#CCCN1CCCC1` [Example 70, 2-(4-((6-methoxy-2-(pyrrolidine-1-yl)-7-(4-(pyrrolidine-1-yl)-1-butyne-1-yl)quinazoline-4-yl)amino)piperidine-1-yl)ethanol], the IC50 was below 100 nM.

In turn, `COc1cc2c(NC3CCN(C)CC3)nc(N3CCCCC3)nc2cc1C#CCCN(C)C` [Example 22, 7-(4-(dimethylamino)-1-butyne-1-yl)-6-methoxy-N-(1-methylpiperidine-4-yl)-2-(piperidine-1-yl)quinazoline-4-amine] had an IC50 of 100 to 1000 nM.

Consider `COc1cc2c(NC3CCN(C(C)C)CC3)nc(N3CCCC3)nc2cc1C#CCCN1CCCCC1` [Example 43, N-(1-isopropylpiperidine-4-yl)-6-methoxy-7-(4-(piperidine-1-yl)-1-butyne-1-yl)-2-(pyrrolidine-1-yl)quinazoline-4-amine], for which the IC50 was below 100 nM.

In the case of `COc1cc2c(NC3CCN(C(C)C)CC3)nc(N3C[C@@H]4C[C@@H]4[C@@H]3CO)nc2cc1C#CCCN1CCCCC1` [Example 47, ((1S,2R,5R)-3-(4-((1-isopropylpiperidine-4-yl)amino)-6-methoxy-7-(4-(piperidine-1-yl)-1-butyne-1-yl)quinazoline-2-yl)-3-azabicyclo[3.1.0]hexane-2-yl)methanol], the concentration for half-maximal inhibition (IC50) is below 100 nM.

As to `CCN1CCC(Nc2nc(N3CCCC3)nc3cc(C#CCCN4CCCC4)c(OC)cc23)CC1` [Example 64, N-(1-ethylpiperidine-4-yl)-6-methoxy-2-(pyrrolidine-1-yl)-7-(4-(pyrrolidine-1-yl)-1-butyne-1-yl)quinazoline-4-amine], the half-maximal inhibitory concentration (IC50) was below 100 nM.

`COc1cc2c(NC3CCN(C(C)C)CC3)nc(Nc3cnn(C)c3)nc2cc1C#CCCN1CCCC1` [Example 88, N4-(1-isopropylpiperidine-4-yl)-6-methoxy-N2-(1-methyl-1H-pyrazole-4-yl)-7-(4-(pyrrolidine-1-yl)-1-butyne-1-yl)quinazoline-2,4-diamine] showed a concentration for half-maximal inhibition (IC50) of 100 to 1000 nM.

Molecule `COc1cc2c(NC3CCN(C(C)C)CC3)nc(N3CCCCCC3)nc2cc1C#CCCN1CCCCC1` [Example 37, 2-(azepane-1-yl)-N-(1-isopropylpiperidine-4-yl)-6-methoxy-7-(4-(piperidine-1-yl)-1-butyne-1-yl)quinazoline-4-amine] displayed a half-maximal inhibitory concentration (IC50) of 100 to 1000 nM.

For the molecule `CCCN1CCC(Nc2nc(N3CCCC3)nc3cc(C#CCCN4CCCC4)c(OC)cc23)CC1` [Example 68, 6-methoxy-N-(1-propylpiperidine-4-yl)-2-(pyrrolidine-1-yl)-7-(4-(pyrrolidine-1-yl)-1-butyne-1-yl)quinazoline-4-amine], the IC50 is below 100 nM.

Take `COc1cc2c(NC3CCN(C(C)C)CC3)nc(N3CCC4(CCCC4)C3)nc2cc1C#CCCN(C)C` [Example 9]: the IC50 is below 100 nM.

`COc1cc2c(NCCCN(C)C)nc(N3CCCCC3)nc2cc1C#CCCN(C)C` [Example 21, N1-(7-(4-(dimethylamino)-1-butyne-1-yl)-6-methoxy-2-(piperidine-1-yl)quinazoline-4-yl)-N3,N3-dimethylpropane-1,3-diamine] returned an IC50 of 100 to 1000 nM.

`COc1cc2c(NC3CCN(CCO)CC3)nc(N3CC[C@@H](F)C3)nc2cc1C#CCCN1CCCC1` [Example 89] came in with an IC50 below 100 nM.

`COc1cc2c(NC3CCN(C(C)C)CC3)nc(N3CCCC3)nc2cc1/C=C/CCN1CCCC1` [Example 85, (E)-N-(1-isopropylpiperidine-4-yl)-6-methoxy-2-(pyrrolidine-1-yl)-7-(4-(pyrrolidine-1-yl)-1-butene-1-yl)quinazoline-4-amine] returned a half-inhibitory concentration (IC50) below 100 nM.

Consider `COc1cc2c(NC3CCCCC3)nc(N3CCCCC3)nc2cc1C#CCCN(C)C` [Example 23, N-cyclohexyl-7-(4-(dimethylamino)-1-butyne-1-yl)-6-methoxy-2-(piperidine-1-yl)quinazoline-4-amine], for which the IC50 fell in the range of 10000 to 100000 nM.

Take `COc1cc2c(NC3CCN(C(C)C)CC3)nc(N3CCCCC3)nc2cc1C#CCCN1CC[C@H](F)C1` [Example 29, (S)-7-(4-(3-fluoropyrrolidine-1-yl)-1-butyne-1-yl)-N-(1-isopropylpiperidine-4-yl)-6-methoxy-2-(piperidine-1-yl)quinazoline-4-amine]: the half-maximal inhibitory concentration (IC50) lay in the range of 100 to 1000 nM.

Consider `CCN1CCC(Nc2nc(N3CCCN(C)CC3)nc3cc(C#CCCN4CCCC4)c(OC)cc23)CC1` [Example 65, N-(1-ethylpiperidine-4-yl)-6-methoxy-2-(4-methyl-1,4-diazepane-1-yl)-7-(4-(pyrrolidine-1-yl)-1-butyne-1-yl) quinazoline-4-amine], for which the IC50 is below 100 nM.

Turning to `CNc1nc(N2CCCC2)nc2cc(C#CCCN3CCCC3)c(OC)cc12` [Example 81, 6-methoxy-N-methyl-2-(pyrrolidine-1-yl)-7-(4-(pyrrolidine-1-yl)-1-butyne-1-yl)quinazoline-4-amine], the concentration for half-maximal inhibition (IC50) lay in the range of 100 to 1000 nM.

Regarding `COc1cc2c(NC3CCN(C(C)C)CC3)nc(N3CCCCC3)nc2cc1C#CCCN1CC[C@@H](F)C1` [Example 30, (R)-7-(4-(3-fluoropyrrolidine-1-yl)-1-butyne-1-yl)-N-(1-isopropylpiperidine-4-yl)-6-methoxy-2-(piperidine-1-yl)quinazoline-4-amine], the half-maximal inhibitory concentration (IC50) fell in the range of 100 to 1000 nM.

For the molecule `CCN1CCC(Nc2nc(N(C)C)nc3cc(C#CCCN4CCCC4)c(OC)cc23)CC1` [Example 63, N4-(1-ethylpiperidine-4-yl)-6-methoxy-N2,N2-dimethyl-7-(4-(-pyrrolidine-1-yl)-1-butyne-1-yl)quinazoline-2,4-diamine], the half-inhibitory concentration (IC50) is below 100 nM.

Molecule `COc1cc2c(NC3CCN(C(C)C)CC3)nc(N3C[C@@H]4C[C@@H]4[C@@H]3CO)nc2cc1C#CCCN(C)C` [Example 10, ((1S,2R,5R)-3-(7-(4-(dimethylamino)-1-butyne-1-yl)-4-((1-isopropylpiperidine-4-yl)amino)-6-methoxyquinazoline-2-yl)-3-azabicyclo[3.1.0]hexane-2-yl)methanol] registered a 50% inhibitory concentration (IC50) of 100 to 1000 nM.

Molecule `COc1cc2c(N[C@@H]3CCCN(Cc4ccccc4)C3)nc(N3CCCCC3)nc2cc1C#CCCN(C)C` [Example 19, (R)-N-(1-benzylpiperidine-3-yl)-7-(4-(dimethylamino)-1-butyne-1-yl)-6-methoxy-2-(piperidine-1-yl)quinazoline-4-amine] gave a half-inhibitory concentration (IC50) of 10000 to 100000 nM.

Turning to `COc1cc2c(NC3CCN(C(C)C)CC3)nc(N3CCCN(C)CC3)nc2cc1C#CCCN1CCCCC1` [Example 45, N-(1-isopropylpiperidine-4-yl)-6-methoxy-2-(4-methyl1,4-diazepane-1-yl)-7-(4-(piperidine-1-yl)-1-butyne-1-yl)quinazoline-4-amine], the IC50 is below 100 nM.

As for `CCN1CCC(Nc2nc(N3CC[C@H](F)C3)nc3cc(C#CCCN4CCCC4)c(OC)cc23)CC1` [Example 72, (S)-N-(1-ethylpiperidine-4-yl)-2-(3-fluoropyrrolidine-1-yl)-6-methoxy-7-(4-(pyrrolidine-1-yl)-1-butyne-1-yl)quinazoline-4-amine], the 50% inhibitory concentration (IC50) was below 100 nM.

Regarding `COc1cc2c(NC3CCN(CCO)CC3)nc(N(C)C)nc2cc1C#CCCN1CCCC1` [Example 87, 2-(4-((2-(dimethylamino)-6-methoxy-7-(4-(pyrrolidine-1-yl)-1-butyne-1-yl)quinazoline-4-yl)amino)piperidine-1-yl) ethanol], the IC50 was below 100 nM.

On to `CCN1CCC(Nc2nc(N3CC[C@@H](F)C3)nc3cc(C#CCCN4CCCC4)c(OC)cc23)CC1` [Example 77, (R)-N-(1-ethylpiperidine-4-yl)-2-(3-fluoropyrrolidine-1-yl)-6-methoxy-7-(4-(pyrrolidine-1-yl)-1-butyne-1-yl)quinazoline-4-amine], for which the IC50 was below 100 nM.

Consider `CCN1CCC(Nc2nc(N3CCCCC3)nc3cc(C#CCCN(C)C)c(OC)cc23)CC1` [Example 50, 7-(4-(dimethylamino)-1-butyne-1-yl)-N-(1-ethylpiperidine-4-yl)-6-methoxy-2-(piperidine-1-yl)quinazoline-4-amine], for which the IC50 was below 100 nM.

For `COc1cc2c(NC3CCN(C(C)C)CC3)nc(N3CC[C@H](F)C3)nc2cc1C#CCCN1CCCC1` [Example 57, (S)-2-(3-fluoropyrrolidine-1-yl)-N-(1-isopropylpiperidine-4-yl)-6-methoxy-7-(4-(pyrrolidine-1-yl)-1-butyne-1-yl)quinazoline-4-amine], the half-inhibitory concentration (IC50) is below 100 nM.

As a reminder, the IC50 is the concentration at which inhibition is half-maximal. A low value points to greater potency in that assay.
